Test system: Shiga toxins

In the case of colloidal bismuth hydroxide gel [CBHG], the “cytotoxic activity on Vero cells” value was “significant decrease”.

From patent publication US9974806B2 (priority 2012, dated 2018)
